The source of these data is article PMC8286840, “Identifying SARS-CoV-2 antiviral compounds by screening for small molecule inhibitors of Nsp3 papain-like protease” (Biochemical Journal, 2021).

Experiment [1] concerns the target T1, SARS-CoV-2 PLpro (nsp3 1564–1878) (Severe acute respiratory syndrome coronavirus 2, UniProt P0DTD1). Briefly: biochemical. The arrangement: FRET-quenched peptide (Pro3) cleavage by PLpro, 10 min pre-incubation, slope over 20 min, normalised to no-compound control. The note with it: low concentration screen, read-out: % of control remaining.
Experiment [2] has as its target T1, SARS-CoV-2 PLpro (nsp3 1564–1878). The experiment in a line: biochemical. The arrangement: FRET-quenched peptide (Pro3) cleavage by PLpro, 10 min pre-incubation, slope over 20 min, normalised to no-compound control. The note with it: high concentration screen, read-out: % of control remaining.

Structures are written as SMILES. Structures can show the parent of a compound that is named as a salt. Where two headings read alike, the source gives them in different places.

Take `O=C1c2c(O)cccc2C([C@@H]2O[C@H](CO)[C@@H](O)[C@H](O)[C@H]2O)c2cc(CO)cc(O)c21` (stereo partly shown) [Aloin]: in experiment [1] (Well no.=8338), the remaining activity at 1.25 µM worked out at 99.2%. Also, the remaining activity at 3.75 µM in experiment [2] (Well no.=8338) is 97.8%.

`CCCCc1c(-c2ccc(O)cc2)[nH]c2nccnc12` [Aloisine A, RP107]: in experiment [1] (Well no.=2318), the remaining activity at 1.25 µM came to 97.4%. The remaining activity at 3.75 µM in experiment [2] (Well no.=2318) amounted to 95.3%.

As for `CCCCc1c(-c2ccc(OC)cc2)[nH]c2nccnc12` [Aloisine, RP106], in experiment [1] (Well no.=2320), the remaining activity at 1.25 µM amounted to 96.9%. Moreover, the remaining activity at 3.75 µM in experiment [2] (Well no.=2320) was 94.7%.

For the compound `C1=C2CCCN[C@H]2[C@@H]2C[C@H]1[C@H]1CCCCN1C2` [Aloperine], in experiment [1] (Well no.=5240), the remaining activity at 1.25 µM came out at 94.5%. The remaining activity at 3.75 µM in experiment [2] (Well no.=5240) came to 94%.

For `Cc1[nH]cnc1CN1CCc2c(c3ccccc3n2C)C1=O` [Alosetron (Hydrochloride)], in experiment [1] (Well no.=8289), the remaining activity at 1.25 µM was found to be 105%. Moreover, the remaining activity at 3.75 µM in experiment [2] (Well no.=8289) was 99.5%.

For the compound `C[C@]12CC[C@@H]3c4ccc(O)cc4CC[C@H]3[C@@H]1CC[C@H]2O` [Alpha-Estradiol], the remaining activity at 1.25 µM in experiment [1] (Well no.=6693) amounted to 98.9%. In addition, the remaining activity at 3.75 µM in experiment [2] (Well no.=6693) was 93.1%.

On to `CCCN(CCC)C(=O)Cc1c(-c2ccc(Cl)cc2)nc2ccc(Cl)cn12` [Alpidem], for which the remaining activity at 1.25 µM in experiment [1] (Well no.=5821) was determined as 108%. In addition, the remaining activity at 3.75 µM in experiment [2] (Well no.=5821) was found to be 106%.

As to `C=CCc1ccccc1OCC(O)CNC(C)C` (stereo not shown) [Alprenolol (hydrochloride)], in experiment [1] (Well no.=6327), the remaining activity at 1.25 µM was determined as 102%. In experiment [2] (Well no.=6327), the remaining activity at 3.75 µM turned out to be 103%.

In the case of `C=CCc1ccccc1OCC(O)CNC(C)C` (stereo not shown) [Alprenolol hydrochloride], in experiment [1] (Well no.=342), the remaining activity at 1.25 µM turned out to be 95.5%. The remaining activity at 3.75 µM in experiment [2] (Well no.=342) was determined as 97.7%.

Turning to `O=C1Cc2c([nH]c3ccc([N+](=O)[O-])cc23)-c2ccccc2N1` [Alsterpaullone], the remaining activity at 1.25 µM in experiment [1] (Well no.=255) was 104%; in experiment [1] (Well no.=2314), 101%. Further, the remaining activity at 3.75 µM is 106% in experiment [2] (Well no.=255) and 105% in experiment [2] (Well no.=2314).

For the compound `C=CC[C@]1(O)CC[C@H]2[C@@H]3CCC4=CC(=O)CCC4=C3C=C[C@@]21C` [Altrenogest], the remaining activity at 1.25 µM in experiment [1] (Well no.=5020) worked out at 94.3%. Also, the remaining activity at 3.75 µM in experiment [2] (Well no.=5020) came out at 93.9%.

As to `CN(C)c1nc(N(C)C)nc(N(C)C)n1` [Altretamine], the remaining activity at 1.25 µM is 96% in experiment [1] (Well no.=8) and 101% in experiment [1] (Well no.=2081). Besides, the remaining activity at 3.75 µM is 98.2% in experiment [2] (Well no.=8) and 101% in experiment [2] (Well no.=2081).

In the case of `Cc1c(-c2ccnn2C)cc(C(=O)NCc2ccc(S(C)(=O)=O)cn2)c(=O)n1-c1cccc(C(F)(F)F)c1` [Alvelestat (AZD9668)], the remaining activity at 1.25 µM in experiment [1] (Well no.=9174) stood at 95.1%. Moreover, the remaining activity at 3.75 µM in experiment [2] (Well no.=9174) amounted to 83.8%.

Take `CCN(CCCc1ccccc1)CCCc1ccccc1` [Alverine (citrate)]: in experiment [1] (Well no.=8203), the remaining activity at 1.25 µM came out at 106%. For the same compound, in experiment [2] (Well no.=8203), the remaining activity at 3.75 µM was 106%.

Consider `CCN(CCCc1ccccc1)CCCc1ccccc1` [Alverine Citrate], for which the remaining activity at 1.25 µM in experiment [1] (Well no.=5277) came to 91.4%. Besides, the remaining activity at 3.75 µM in experiment [2] (Well no.=5277) was 91.3%.

In the case of `C[C@H]1CN(C[C@H](Cc2ccccc2)C(=O)NCC(=O)O)CC[C@@]1(C)c1cccc(O)c1` [Alvimopan (dihydrate)], the remaining activity at 1.25 µM in experiment [1] (Well no.=6559) stood at 100%. The remaining activity at 3.75 µM in experiment [2] (Well no.=6559) was 101%.

`C[C@H]1CN(C[C@H](Cc2ccccc2)C(=O)NCC(=O)O)CC[C@@]1(C)c1cccc(O)c1` [Alvimopan]: the remaining activity at 1.25 µM in experiment [1] (Well no.=6051) was determined as 95.7%. Further, the remaining activity at 3.75 µM in experiment [2] (Well no.=6051) is 96.9%.

For the compound `CN1CC[C@H](c2c(O)cc(O)c3c(=O)cc(-c4ccccc4Cl)oc23)[C@H](O)C1` [Alvocidib], the remaining activity at 1.25 µM in experiment [1] (Well no.=2695) came out at 98.7%. The remaining activity at 3.75 µM in experiment [2] (Well no.=2695) is 104%.

For the compound `NC12CC3CC(CC(C3)C1)C2` [Amantadine hydrochloride], the remaining activity at 1.25 µM in experiment [1] (Well no.=9) was determined as 104%. In experiment [2] (Well no.=9), the remaining activity at 3.75 µM was 103%.

On to `NC12CC3CC(CC(C3)C1)C2` [Amantadine.HCl], for which, in experiment [1] (Well no.=1653), the remaining activity at 1.25 µM worked out at 97.9%. The remaining activity at 3.75 µM in experiment [2] (Well no.=1653) was determined as 97.4%.

On to `O=S(=O)(O)c1ccc2c(N=Nc3ccc(S(=O)(=O)O)c4ccccc34)c(O)c(S(=O)(=O)O)cc2c1` [Amaranth], for which, in experiment [1] (Well no.=8462), the remaining activity at 1.25 µM was 98.1%. Further, in experiment [2] (Well no.=8462), the remaining activity at 3.75 µM is 97.5%.

In the case of `COC(c1ccccc1)(c1ccccc1)[C@H](Oc1nc(C)cc(C)n1)C(=O)O` [Ambrisentan], the remaining activity at 1.25 µM in experiment [1] (Well no.=5270) is 94.8%; in experiment [1] (Well no.=6365), 102%. The remaining activity at 3.75 µM came out at 92.5% in experiment [2] (Well no.=5270) and 98.8% in experiment [2] (Well no.=6365).

With `Nc1c(Br)cc(Br)cc1CN[C@H]1CC[C@H](O)CC1` [Ambroxol HCl], the remaining activity at 1.25 µM in experiment [1] (Well no.=5311) was 99.4%. Further, the remaining activity at 3.75 µM in experiment [2] (Well no.=5311) worked out at 97.1%.

For the compound `Nc1c(Br)cc(Br)cc1CN[C@H]1CC[C@H](O)CC1` [Ambroxol], the figures for the remaining activity at 1.25 µM in experiment [1] (Well no.=1614) and in experiment [1] (Well no.=3892) were 102% and 98.1%, respectively. In addition, the remaining activity at 3.75 µM was 101% in experiment [2] (Well no.=1614) and 97.9% in experiment [2] (Well no.=3892).

As to `COc1cc(N)cn[n+]1-c1ccccc1` [Amezinium (methylsulfate)], the remaining activity at 1.25 µM in experiment [1] (Well no.=6567) is 106%. The remaining activity at 3.75 µM in experiment [2] (Well no.=6567) was 104%.

On to `CCn1cc(C(=O)O)c(=O)c2ccc(Cc3ccccc3)nc21` [Amfonelic acid], for which the remaining activity at 1.25 µM in experiment [1] (Well no.=446) is 98.4%. Besides, the remaining activity at 3.75 µM in experiment [2] (Well no.=446) amounted to 98.5%.

Regarding `NCCCNCCSP(=O)(O)O` [Amifostine], the remaining activity at 1.25 µM turned out to be 103% in experiment [1] (Well no.=115) and 99.3% in experiment [1] (Well no.=2115). For the same compound, the results for the remaining activity at 3.75 µM in experiment [2] (Well no.=115) and in experiment [2] (Well no.=2115) were 104% and 102%, respectively.

Take `NCC[C@H](O)C(=O)N[C@@H]1C[C@H](N)[C@@H](O[C@H]2O[C@H](CN)[C@@H](O)[C@H](O)[C@H]2O)[C@H](O)[C@H]1O[C@H]1O[C@H](CO)[C@@H](O)[C@H](N)[C@H]1O` [Amikacin hydrate]: the remaining activity at 1.25 µM in experiment [1] (Well no.=5355) worked out at 97.3%. Moreover, in experiment [2] (Well no.=5355), the remaining activity at 3.75 µM is 101%.

As to `NCC[C@H](O)C(=O)N[C@@H]1C[C@H](N)[C@@H](O[C@H]2O[C@H](CN)[C@@H](O)[C@H](O)[C@H]2O)[C@H](O)[C@H]1O[C@H]1O[C@H](CO)[C@@H](O)[C@H](N)[C@H]1O` [Amikacin sulfate], the remaining activity at 1.25 µM in experiment [1] (Well no.=5313) amounted to 107%. Further, in experiment [2] (Well no.=5313), the remaining activity at 3.75 µM came to 99.9%.

Consider `N=C(N)NC(=O)c1nc(Cl)c(N)nc1N` [Amiloride HCl dihydrate], for which the remaining activity at 1.25 µM in experiment [1] (Well no.=5290) is 101%. The remaining activity at 3.75 µM in experiment [2] (Well no.=5290) is 100%.
